Data taken from the OPERA property sets (Mansouri et al. 2018).

Conditions: for log10 BCF / log10 biotransformation half-life (days): fish

Structure (SMILES) | melting point [°C] | boiling point [°C] | also measured
NS(=O)(=O)c1cc(Cl)c(Cl)c(S(N)(=O)=O)c1 | 229 |  | 
CC1=C(O)C(=O)CC1 | 106 |  | 
CCN1CCNC(=O)C1=O | 108 |  | 
Cc1ccc([N+](=O)[O-])c(Cl)c1 | 24 |  | 
CN(C)CC(O)c1ccc(O)c(O)c1 (centres undefined) | 149 |  | 
Brc1cc(Br)c(Br)s1 | 29 | 260 | 
Nc1ccc(S(=O)(=O)NCc2ccccc2)cc1 | 171 |  | 
C=CC(C)CCCC(C)C (centres undefined) |  | 154 | 
Cc1ccc(N)cc1Br | 26 | 256 | 
C#CC(O)CCC (centres undefined) | -80 | 142 | 
Brc1ccc(Br)c2ccccc12 | 83 | 310 | 
Nc1ccc(I)cc1 | 67.5 |  | 
Clc1cc(Cl)c2c(c1)oc1cc(Cl)cc(Cl)c12 | 207 |  | log10 vapour pressure (mmHg): -7.73
CC(=O)c1ccc(O)cc1C | 128 | 313 | 
CC(C)(C)[C@@H](O)[C@H](Cc1ccc(Cl)cc1Cl)n1cncn1 | 148 |  | 
Brc1cc2c(cc1Br)Oc1cc(Br)c(Br)cc1O2 | 334 |  | log10 vapour pressure (mmHg): -8.32
CN(C)Cc1ccccc1 |  | 181 | ready biodegradability: not readily biodegradable; log10 BCF: 1.15
CC(C)[C@@H](C)C(=O)O | -1.5 | 192 | 
Oc1cc(O)cc(O)c1 | 218 |  | ready biodegradability: readily biodegradable
ClCCCCCCCl |  | 204 | 
COc1ccc(C)c(N)c1 | 47 | 253 | 

Structure (SMILES) | melting point [°C] | boiling point [°C] | also measured
CC1=C(/C=C/C(C)=C/C=C/C(C)=C/C=C/C=C(C)/C=C/C=C(C)/C=C/C2=C(C)C[C@H](O)CC2(C)C)C(C)(C)CCC1 | 160 |  | 
CC(C=O)=Cc1ccccc1 |  | 252 | log10 vapour pressure (mmHg): -1.82
CCOc1ccccc1 | -29.5 | 170 | log10 vapour pressure (mmHg): 0.185; ready biodegradability: readily biodegradable
NS(=O)(=O)C(F)(F)C(F)(F)C(F)(F)C(F)(F)C(F)(F)C(F)(F)C(F)(F)C(F)(F)F |  |  | log10 vapour pressure (mmHg): -0.606
CCCCCCCCCCCCCCCCCCOC(=O)CCSCCC(=O)OCCCCCCCCCCCCCCCCCC | 66 |  | ready biodegradability: readily biodegradable
Nc1cccc2ncccc12 | 110 | 310 | log10 vapour pressure (mmHg): -4.77
CC(C)(C)C(O)(CCc1ccc(Cl)cc1)Cn1cncn1 (centres undefined) | 102 |  | log10 vapour pressure (mmHg): -7.89; log10 biotransformation half-life (days): 0.77
CC/C=C\C(C)(C)C | -137 |  | 
O=C(CCl)C(Cl)Cl |  | 172 | 
Brc1ccc(Br)s1 | -6 | 210 | 
O=[N+]([O-])c1ccc(O/N=C/c2cc(Br)c(O)c(Br)c2)c([N+](=O)[O-])c1 | 196 |  | 
O=S(=O)(O)c1cc(S(=O)(=O)O)c2c(/N=N\c3ccc(S(=O)(=O)O)c4ccccc34)c(O)ccc2c1 |  |  | ready biodegradability: not readily biodegradable
c1ccc2c(c1)ccc1ncccc12 | 94 | 352 | log10 Koc (L/kg): 4.64; log10 vapour pressure (mmHg): -4.25
N#Cc1cc([N+](=O)[O-])c(Cl)c([N+](=O)[O-])c1 | 141 |  | 
O=C(c1ccc(O)cc1)c1ccc(O)c(O)c1O |  |  | ready biodegradability: not readily biodegradable
CC(Cl)(Cl)C(Cl)Cl |  | 153 | 
Clc1ccc(-c2ccc(Cl)c(Cl)c2)c(Cl)c1 |  |  | log10 Henry constant (atm·m³/mol): -3.92; log10 Koa: 9.02; log10 vapour pressure (mmHg): -4.33; log10 biotransformation half-life (days): 2.07
Cc1cccc2cccc(C)c12 | 65 | 270 | log10 vapour pressure (mmHg): -2.32
BrCCc1ccccc1 | -65.7 | 219 | log10 vapour pressure (mmHg): -0.612
CCCCCCCOC(=O)CCCCCCC | -10.6 | 290 | 
CNOC |  |  | log10 vapour pressure (mmHg): 2.58

Structure (SMILES) | melting point [°C] | boiling point [°C] | also measured
CCCCCCCCCCCC | -9.6 | 216 | log10 biodegradation half-life (days): 1; log10 vapour pressure (mmHg): -0.87; ready biodegradability: readily biodegradable; log10 BCF: 2.38; log10 biotransformation half-life (days): 0.26
Cc1cc(C)c(C(=O)O)cc1C | 152 |  | 
O=C(O)c1ccc(Cl)c([N+](=O)[O-])c1 | 183 |  | 
CC(=NO)c1ccccc1 | 60 | 245 | 
COc1ccccc1NC(C)=O | 87.5 | 304 | 
CCNC(C)C |  | 69.6 | 
CCS(=O)(=O)c1ccc(F)cc1 | 41 |  | 
CC[C@H]1OC(=O)[C@H](C)C(=O)[C@H](C)[C@@H](O[C@@H]2O[C@H](C)C[C@H](N(C)C)[C@H]2O)[C@@H](C)C[C@@H](C)C(=O)C=C[C@]1(C)O | 170 |  | 
C[C@]12C=CC(=O)C=C1CC[C@@H]1[C@@H]2CC[C@]2(C)OC(=O)CC[C@@H]12 | 218 |  | 
O=C(O)c1c(Cl)c(Cl)c(Cl)c(Cl)c1C(O)=Nc1cccc(Cl)c1Cl | 198 |  | 
CCC(C)(C)CO |  | 136 | 
CC(C)C(=O)OCC(C)(C)C(O)C(C)C (centres undefined) |  |  | ready biodegradability: readily biodegradable
CC=CCCC |  |  | ready biodegradability: not readily biodegradable
Oc1cc(Cl)cc(Cl)c1Cl | 62 |  | log10 Koc (L/kg): 3.61; log10 vapour pressure (mmHg): -1.66
CCCN(CCC)N=O |  | 206 | ready biodegradability: not readily biodegradable
OC(CNc1ccccn1)c1ccccc1 (centres undefined) | 83.5 |  | 
O=C1CCCCCCC1 | 29 | 196 | log10 vapour pressure (mmHg): -0.389
CC[C@H](C)CBr |  | 122 | 
CCOc1ccccc1[N+](=O)[O-] | 2.2 | 267 | 
NC(=O)Nc1ccccc1F |  |  | log10 Koc (L/kg): 1.32
